According to US20090156511A1, “Agent for Enhancing Antiseptic Power” (Kao Corporation, priority 2005, published 2009):

Tested on: Staphylococcus aureus IF013276, Escherichia coli IF03972, Pseudomonas aeruginosa IF013275
Assay: Antibacterial test (inoculated composition held at 30° C., colony counting method)
Type: cell-based
Method: The following bacteria were suspended in a physiological saline such that the number of bacteria or spores was 10^8 CFU/mL. to prepare a bacteria-containing solution. Then, 0.005 mL of the thus obtained bacteria-containing solution was inoculated into 5 mL of the composition to be tested such that the bacteria concentration therein was […]. The thus inoculated composition was held at 30° C. for a predetermined period of time to measure the change in number of bacteria with time by the calculation using a colony counting method. The antibacterial property of the composition was evaluated according to the following four ratings.
Staphylococcus aureus IF013276
Pseudomonas aeruginosa IF013275
⊚: Sufficiently high antibacterial property (number of bacteria was decreased by […] or more)
◯: High antibacterial property (number of bacteria was decreased by […])
Δ: Low antibacterial property (number of bacteria was decreased by 10^2 to 10^1)

## α,β-2-hexyldecyl galactoside
0.1% by mass without antiseptic agent, with polyoxyethylene (60) hydrogenated castor oil, Table 2, after 7 days
  antibacterial property by itself: no antibacterial property

## α,β-n-dodecyl galactoside
0.1% by mass in water without antiseptic agent, Table 1, after 9 days
  antibacterial property by itself: no antibacterial property
